Source: PMC10677270, “2554. What’s Weight Got to Do with It? Prospective Pharmacokinetic/Pharmacodynamic Evaluation of Fixed-Dose Daptomycin” (Open Forum Infectious Diseases, 2023)

Assay: Steady-state pharmacokinetic/pharmacodynamic evaluation of fixed-dose (750 mg) daptomycin in patients with Staphylococcus aureus infections
Method: This study evaluated systemic exposure of a fixed dose (750 mg) of DAP in patients with Staphylococcus aureus infections. Methods Adult non-ICU patients with CrCl ≥ 30 mL/min admitted to our academic medical center warranting DAP for a S. aureus infection were eligible for enrollment. DAP 750 mg was infused over 30 minutes every 24 hours. At steady state, concentrations were obtained pre-dose (0.5 hours) and 1, 12, and 24 hours after the start of infusion. Concentrations were measured using a validated LC-MS assay. Pharmacokinetic (PK) analysis was performed using first-order equations and stratified by weight: low (< 65 kg), normal (65-85 kg), and high ( > 85 kg). Therapeutic AUC24 (≥ 666 mg*hr/L) and elevated trough (Cmin > 24.3 mg/L) were the efficacy and safety targets, respectively.

CCCCCCCCCC(=O)N[C@@H](Cc1c[nH]c2ccccc12)C(=O)N[C@H](CC(N)=O)C(=O)N[C@@H](CC(=O)O)C(=O)N[C@@H]1C(=O)NCC(=O)N[C@@H](CCCN)C(=O)N[C@@H](CC(=O)O)C(=O)N[C@H](C)C(=O)N[C@@H](CC(=O)O)C(=O)NCC(=O)N[C@H](CO)C(=O)N[C@@H]([C@H](C)CC(=O)O)C(=O)N[C@@H](CC(=O)c2ccccc2N)C(=O)O[C@@H]1C [DAP, daptomycin]
Ke (all patients n=22, DAP 750 mg infused over 30 min every 24 h, LC-MS, first-order equations, median, IQR [0.046, 0.098]): 0.078 h⁻¹ | Cmin (all patients n=22, DAP 750 mg infused over 30 min every 24 h, LC-MS, median, IQR [7.3, 29.9]): 10.5 µg/mL | Therapeutic AUC24 (>= 666 mg*hr/L) achieved, share of patients (all patients, 14/22, DAP 750 mg every 24 h, efficacy target): 64% | Therapeutic AUC24 (>= 666 mg*hr/L) achieved, share of patients (females n=12, DAP 750 mg every 24 h): 83% | Therapeutic AUC24 (>= 666 mg*hr/L) achieved, share of patients (males n=10, DAP 750 mg every 24 h): 40%
